The source of these data is patent US5104875A, “Combination preparations containing rifampicin and thioacetazon” (priority 1989, dated 1992).

The test system of data set [1] is mycobacteria of the avium complex, patient Sa. As to the kind of experiment: MIC alone and in combination. Format: cell-based. The conditions noted are these: Homo sapiens, single.
In data set [2] the test system is mycobacteria of the avium complex, patient Me. As to the kind of experiment: MIC alone and in combination. Format: cell-based. The conditions noted are these: Homo sapiens, single.
Data set [3] relates to mycobacteria of the avium complex, patient Ku. As to the kind of experiment: MIC alone and in combination. Format: cell-based. As to conditions: Homo sapiens, single.
The test system of data set [4] is mycobacteria of the avium complex, patient Wi. The experiment in a line: MIC alone and in combination. Format: cell-based. The conditions noted are these: Homo sapiens, single.
Data set [5] concerns mycobacteria of the avium complex, patient Vo. The experiment in a line: MIC alone and in combination. The class given is cell-based. As to conditions: Homo sapiens, single.
Data set [6] has as its system mycobacteria of the avium complex, patient Bi. As to the kind of experiment: MIC alone and in combination. The class given is cell-based. As to conditions: Homo sapiens, single.
The subject of data set [7] is mycobacteria of the avium complex, patient Ma. As to the kind of experiment: MIC alone and in combination. The class given is cell-based. As to conditions: Homo sapiens, single.
Data set [8] concerns mycobacteria of the avium complex, patient Ka-B. The experiment in a line: MIC alone and in combination. The conditions noted are these: Homo sapiens, single. Format: cell-based.
The subject of data set [9] is mycobacteria of the avium complex, patient two. The experiment in a line: MIC alone and in combination. The class given is cell-based. As to conditions: Homo sapiens, single.
Data set [10] relates to mycobacteria of the avium complex, patient one. The experiment in a line: MIC alone and in combination. The class given is cell-based. The conditions noted are these: Homo sapiens, single.
The next data set has as its system M.tuberculosis H37Rv. The experiment in a line: chess-board titration, growth inhibition. The class given is cell-based.
In data set [11] the test system is RMP-resistant patient strain M. avium BK. As to the kind of experiment: chess-board titration, growth inhibition. The class given is cell-based.
Data set [12] deals with mycobacteria of the MOTT-complex. As to the kind of experiment: effect when administered alone. As to conditions: administered alone (cf. Example 2, Table 2 and Table 5).
The next data set deals with M. avium 227. The experiment in a line: MIC of the individual substances.
Another data set has as its system M. avium Ro. As to the kind of experiment: MIC of the individual substances. The conditions noted are these: for MIC: single substance.
A further data set relates to M. avium Dan. The experiment in a line: MIC of the individual substances. The conditions noted are these: for MIC: single substance.
Another data set relates to M. avium Bi. As to the kind of experiment: MIC of the individual substances. The conditions noted are these: single substance.
A further data set has as its system mycobacteria. The conditions noted are these: administered alone in acceptable doses; cited from earlier work.
The conditions of data set [13]: higher doses; cited from earlier work.
Where [14] appears, read: Mycobacterium avium, 227, read-out: average inhibiting concentration alone.

SMILES strings stand for the structures. Where two headings read alike, the source gives them in different places. Some results are limits rather than exact numbers.

Experimental for M. avium 227: (§1) The bacteria were cultivated in a liquid nutrient medium according to Lockemann (cf. "Nachweisverfahren fur Mykobakterien aus Untersuchungsmaterial, III, Nahrbodenrezepte zur Kultur von Tuberkulosebakterien, 1978, Publisher: Deutsches Zentralkomitee zur Bekampfung der Tuberkulose, Poppenhusenstrasse 14c, 2000 Hamburg 60) enriched with 0.5 % albumin and 1 % human serum. In each case 5×10^-3 to 5 ×10^-5 mg, referred to the weight in wet state, of the mycobacteria strains were incubated in 2 ml of the culture liquid at 37° C. with graded concentrations of RMP and Thz. Readings were taken from the culture tubes after 8 to 15 days.
(§2) The MIC is the concentration of the growth inhibitor in μg/ml, at which no multiplication of the seeded cells can be established.
Experimental for M. avium Bi: as §1, §2
Experimental for M. avium Dan: as §1, §2
Experimental for M. avium Ro: as §1, §2

For the compound `CC[C@@H](CO)NCCN[C@@H](CC)CO` [EMB, ethambutol], the MIC was greater than 32 µg/mL in data set [1]; 8 µg/mL in data set [2]; greater than 32 µg/mL in data set [3]; greater than 32 µg/mL in data set [4]; 4 to 8 µg/mL in data set [5]; 4 µg/mL in [6]. In addition, the MIC was 32 µg/mL in data set [7], greater than 32 µg/mL in [8], 16 to 32 µg/mL in data set [9] and greater than 32 µg/mL in data set [10].
Turning to `NNC(=O)c1ccncc1` [INH, isonicotinic acid hydrazide], the MIC in data set [1] is 32 µg/mL; in data set [2], 16 µg/mL; in [3] it was 4 µg/mL; in [4], 16 µg/mL; in data set [5], 8 µg/mL; in [6], greater than 32 µg/mL. The MIC in data set [7] is greater than 32 µg/mL; in [8], 32 µg/mL; in data set [9], 16 µg/mL; in data set [10], 4 µg/mL.
For the compound `CO[C@H]1/C=C/O[C@@]2(C)Oc3c(C)c(O)c4c(O)c(c(/C=N/N5CCN(C)CC5)c(O)c4c3C2=O)NC(=O)/C(C)=C\C=C\[C@H](C)[C@H](O)[C@@H](C)[C@@H](O)[C@@H](C)[C@H](OC(C)=O)[C@@H]1C` [RMP, rifampicin], the growth inhibition entry is “+++” in the data set on M.tuberculosis H37Rv (Rifampicin .006 ug/ml, Thioacetazon 0); “+++” in the data set with M.tuberculosis H37Rv (Rifampicin .012 ug/ml, Thioacetazon 0); “+++” in the data set with M.tuberculosis H37Rv (Rifampicin .018 ug/ml, Thioacetazon 0); “+++” with M.tuberculosis H37Rv (Rifampicin .024 ug/ml, Thioacetazon 0); “++” with M.tuberculosis H37Rv (Rifampicin .030 ug/ml, Thioacetazon 0); “+” with M.tuberculosis H37Rv (Rifampicin .036 ug/ml, Thioacetazon 0). In addition, the growth inhibition result with M.tuberculosis H37Rv (Rifampicin .042 ug/ml, Thioacetazon 0) was “+”; in the data set with M.tuberculosis H37Rv (Rifampicin .048 ug/ml, Thioacetazon 0), “+”; with M.tuberculosis H37Rv (Rifampicin .054 ug/ml, Thioacetazon 0), “-”; in the data set with M.tuberculosis H37Rv (Rifampicin .06 ug/ml, Thioacetazon 0) it was “-”; in [11] (Rifampicin 0.8 ug/ml, Thioacetazon 0.000), “+++”; in [11] (Rifampicin 1.6 ug/ml, Thioacetazon 0.000), “+++”. The growth inhibition entry in data set [11] (Rifampicin 2.4 ug/ml, Thioacetazon 0.000) is given as “++”; in [11] (Rifampicin 3.2 ug/ml, Thioacetazon 0.000), “++”; in [11] (Rifampicin 4 ug/ml, Thioacetazon 0.000) it was “-”; in data set [11] (Rifampicin 4.8 ug/ml, Thioacetazon 0.000) it was “-”; in data set [11] (Rifampicin 5.4 ug/ml, Thioacetazon 0.000), “-”; in data set [11] (Rifampicin 6.4 ug/ml, Thioacetazon 0.000), “-”. Moreover, the growth inhibition result in [11] (Rifampicin 7.2 ug/ml, Thioacetazon 0.000) was “-”; in data set [11] (Rifampicin 8 ug/ml, Thioacetazon 0.000) it was “-”. For the same compound, the MIC was 8 µg/mL in data set [1]; 16 µg/mL in data set [2]; 32 µg/mL in [3]; greater than 32 µg/mL in data set [4]; 16 µg/mL in data set [5]; 4 µg/mL in [6]. Also, the MIC is greater than 32 µg/mL in data set [7]; greater than 32 µg/mL in data set [8]; 32 µg/mL in [9]; greater than 32 µg/mL in data set [10]; 8 µg/mL in the data set with M. avium 227 (M. avium 227, single substance); 8 µg/mL with M. avium 227 (setting [14]). Moreover, the MIC in the data set with M. avium Ro is greater than 32 µg/mL; with M. avium Dan, 16 µg/mL; in the data set on M. avium Bi it was 3 µg/mL. The “effect against the mycobacteria of the MOTT-complex” value in [12] was “no effect or only a slight effect”. Besides, the resistance entry with M. avium Ro is “completely resistant”.
For `CC(=O)Nc1ccc(C=NNC(N)=S)cc1` [Thz, thioacetazon], the growth inhibition result is reported as “+++” in the data set with M.tuberculosis H37Rv (Thioacetazon .05 ug/ml, Rifampicin 0); “+++” in the data set on M.tuberculosis H37Rv (Thioacetazon .10 ug/ml, Rifampicin 0); “+++” with M.tuberculosis H37Rv (Thioacetazon .15 ug/ml, Rifampicin 0); “+++” in the data set on M.tuberculosis H37Rv (Thioacetazon .20 ug/ml, Rifampicin 0); “+++” in the data set on M.tuberculosis H37Rv (Thioacetazon .25 ug/ml, Rifampicin 0); “+++” in the data set on M.tuberculosis H37Rv (Thioacetazon .30 ug/ml, Rifampicin 0). Besides, the growth inhibition entry is “+++” with M.tuberculosis H37Rv (Thioacetazon .35 ug/ml, Rifampicin 0); “+ ++” in the data set on M.tuberculosis H37Rv (Thioacetazon .40 ug/ml, Rifampicin 0); “+++” in the data set on M.tuberculosis H37Rv (Thioacetazon .45 ug/ml, Rifampicin 0); “+++” with M.tuberculosis H37Rv (Thioacetazon .50 ug/ml, Rifampicin 0); “+++” in data set [11] (Thioacetazon 0.8 ug/ml, Rifampicin 0); “+++” in [11] (Thioacetazon 1.6 ug/ml, Rifampicin 0). In addition, the growth inhibition entry is reported as “++” in data set [11] (Thioacetazon 2.4 ug/ml, Rifampicin 0); “++” in data set [11] (Thioacetazon 3.2 ug/ml, Rifampicin 0); “++” in data set [11] (Thioacetazon 4 ug/ml, Rifampicin 0); “++” in [11] (Thioacetazon 4.8 ug/ml, Rifampicin 0); “+” in data set [11] (Thioacetazon 5.6 ug/ml, Rifampicin 0); “+” in data set [11] (Thioacetazon 6.4 ug/ml, Rifampicin 0). Moreover, the growth inhibition entry in data set [11] (Thioacetazon 7.2 ug/ml, Rifampicin 0) was “+”; in data set [11] (Thioacetazon 8 ug/ml, Rifampicin 0), “+”. For the same compound, the MIC in data set [1] is 32 µg/mL; in data set [2] it was 32 µg/mL; in data set [3], 32 µg/mL; in data set [4], 32 µg/mL; in data set [5] it was 32 µg/mL; in data set [6], greater than 32 µg/mL. The MIC is greater than 32 µg/mL in [7]; greater than 32 µg/mL in data set [8]; 32 µg/mL in data set [9]; 16 µg/mL in [10]; 32 µg/mL with M. avium 227 (M. avium 227, single substance); 32 µg/mL with M. avium 227 (setting [14]). Further, the MIC with M. avium Ro is greater than 32 µg/mL; with M. avium Dan, greater than 32 µg/mL; with M. avium Bi, 3 µg/mL. Further, in the data set on mycobacteria, the anti-mycobacterial effect result was “only of weak effect”. Besides, the undesirable side-effects entry in data set [13] is listed as “can lead to undesirable side-effects in higher doses”. Also, the resistance entry is reported as “completely resistant” in the data set with M. avium Ro and “resistant” in the data set on M. avium Dan.
